Test results published in ChEMBL document CHEMBL4765227, “Hit to lead optimization of a series of N-[4-(1,3-benzothiazol-2-yl)phenyl]acetamides as monoacylglycerol lipase inhibitors with potential anticancer activity” (Eur J Med Chem, 2016).

What was measured:
Assay type in all cases: functional
Conditions in all cases: read-out: GI
SK-MEL-5 = assay: Growth inhibition of human SK-MEL-5 cells at 10 uM incubated for 48 hrs by sulforhodamine B assay relative to control
SNB-75 = assay: Growth inhibition of human SNB-75 cells at 10 uM incubated for 48 hrs by sulforhodamine B assay relative to control
CCRF-CEM = assay: Growth inhibition of human CCRF-CEM cells at 10 uM incubated for 48 hrs by sulforhodamine B assay relative to control
NCI-H522 = assay: Growth inhibition of human NCI-H522 cells at 10 uM incubated for 48 hrs by sulforhodamine B assay relative to control
RXF 393 = assay: Growth inhibition of human RXF 393 cells at 10 uM incubated for 48 hrs by sulforhodamine B assay relative to control
A549 = assay: Growth inhibition of human A549/ATCC cells at 10 uM incubated for 48 hrs by sulforhodamine B assay relative to control
DU-145 = assay: Growth inhibition of human DU-145 cells at 10 uM incubated for 48 hrs by sulforhodamine B assay relative to control
SF-539 = assay: Growth inhibition of human SF-539 cells at 10 uM incubated for 48 hrs by sulforhodamine B assay relative to control
UACC-257 = assay: Growth inhibition of human UACC-257 cells at 10 uM incubated for 48 hrs by sulforhodamine B assay relative to control
HOP-92 = assay: Growth inhibition of human HOP-92 cells at 10 uM incubated for 48 hrs by sulforhodamine B assay relative to control
UO-31 = assay: Growth inhibition of human UO-31 cells at 10 uM incubated for 48 hrs by sulforhodamine B assay relative to control
MDA-MB-468 = assay: Growth inhibition of human MDA-MB-468 cells at 10 uM incubated for 48 hrs by sulforhodamine B assay relative to control
PC-3 = assay: Growth inhibition of human PC-3 cells at 10 uM incubated for 48 hrs by sulforhodamine B assay relative to control
SK-MEL-28 = assay: Growth inhibition of human SK-MEL-28 cells at 10 uM incubated for 48 hrs by sulforhodamine B assay relative to control
K562 = assay: Growth inhibition of human K562 cells at 10 uM incubated for 48 hrs by sulforhodamine B assay relative to control
NCI-H23 = assay: Growth inhibition of human NCI-H23 cells at 10 uM incubated for 48 hrs by sulforhodamine B assay relative to control
OVCAR-8 = assay: Growth inhibition of human OVCAR-8 cells at 10 uM incubated for 48 hrs by sulforhodamine B assay relative to control
U-251 = assay: Growth inhibition of human U-251 cells at 10 uM incubated for 48 hrs by sulforhodamine B assay relative to control
SNB-19 = assay: Growth inhibition of human SNB-19 cells at 10 uM incubated for 48 hrs by sulforhodamine B assay relative to control
HT-29 = assay: Growth inhibition of human HT-29 cells at 10 uM incubated for 48 hrs by sulforhodamine B assay relative to control
HCT-15 = assay: Growth inhibition of human HCT-15 cells at 10 uM incubated for 48 hrs by sulforhodamine B assay relative to control
SR = assay: Growth inhibition of human SR cells at 10 uM incubated for 48 hrs by sulforhodamine B assay relative to control
BT-549 = assay: Growth inhibition of human BT-549 cells at 10 uM incubated for 48 hrs by sulforhodamine B assay relative to control
HOP-62 = assay: Growth inhibition of human HOP-62 cells at 10 uM incubated for 48 hrs by sulforhodamine B assay relative to control
UACC-62 = assay: Growth inhibition of human UACC-62 cells at 10 uM incubated for 48 hrs by sulforhodamine B assay relative to control
SK-OV-3 = assay: Growth inhibition of human SK-OV-3 cells at 10 uM incubated for 48 hrs by sulforhodamine B assay relative to control
SF-295 = assay: Growth inhibition of human SF-295 cells at 10 uM incubated for 48 hrs by sulforhodamine B assay relative to control
TK-10 = assay: Growth inhibition of human TK-10 cells at 10 uM incubated for 48 hrs by sulforhodamine B assay relative to control
MDA-MB-231 = assay: Growth inhibition of human MDA-MB-231 cells at 10 uM incubated for 48 hrs by sulforhodamine B assay relative to control
SF-268 = assay: Growth inhibition of human SF-268 cells at 10 uM incubated for 48 hrs by sulforhodamine B assay relative to control
HCC 2998 = assay: Growth inhibition of human HCC 2998 cells at 10 uM incubated for 48 hrs by sulforhodamine B assay relative to control
T47D = assay: Growth inhibition of human T47D cells at 10 uM incubated for 48 hrs by sulforhodamine B assay relative to control
OVCAR-4 = assay: Growth inhibition of human OVCAR-4 cells at 10 uM incubated for 48 hrs by sulforhodamine B assay relative to control
LOX IMVI = assay: Growth inhibition of human LOX IMVI cells at 10 uM incubated for 48 hrs by sulforhodamine B assay relative to control
HCT-116 = assay: Growth inhibition of human HCT-116 cells at 10 uM incubated for 48 hrs by sulforhodamine B assay relative to control
MDA-MB-435 = assay: Growth inhibition of human MDA-MB-435 cells at 10 uM incubated for 48 hrs by sulforhodamine B assay relative to control
SN12C = assay: Growth inhibition of human SN12C cells at 10 uM incubated for 48 hrs by sulforhodamine B assay relative to control
MOLT-4 = assay: Growth inhibition of human MOLT-4 cells at 10 uM incubated for 48 hrs by sulforhodamine B assay relative to control
HL-60(TB) = assay: Growth inhibition of human HL-60(TB) cells at 10 uM incubated for 48 hrs by sulforhodamine B assay relative to control
RPMI-8226 = assay: Growth inhibition of human RPMI-8226 cells at 10 uM incubated for 48 hrs by sulforhodamine B assay relative to control
ACHN = assay: Growth inhibition of human ACHN cells at 10 uM incubated for 48 hrs by sulforhodamine B assay relative to control
M14 = assay: Growth inhibition of human M14 cells at 10 uM incubated for 48 hrs by sulforhodamine B assay relative to control
MCF7 = assay: Growth inhibition of human MCF7 cells at 10 uM incubated for 48 hrs by sulforhodamine B assay relative to control
KM12 = assay: Growth inhibition of human KM12 cells at 10 uM incubated for 48 hrs by sulforhodamine B assay relative to control

With `O=C(CNCc1ccccc1)Nc1ccc(-c2nc3ccccc3s2)cc1` the inhibition of growth at 10 µM (SK-MEL-5) was 5.63%, the inhibition of growth at 10 µM (SNB-75) was 18% and the inhibition of growth at 10 µM (CCRF-CEM) was 9.29%. For the same compound, the inhibition of growth at 10 µM (NCI-H522) was 9.64%, the inhibition of growth at 10 µM (RXF 393) was -3.76% and the inhibition of growth at 10 µM (A549) was 22.7%. For the same compound, the inhibition of growth at 10 µM (DU-145) was -7.09%, the inhibition of growth at 10 µM (SF-539) was 17.8% and the inhibition of growth at 10 µM (UACC-257) was 4.97%. For the same compound, the inhibition of growth at 10 µM (HOP-92) was 15.1%, the inhibition of growth at 10 µM (UO-31) was 20.5% and the inhibition of growth at 10 µM (MDA-MB-468) was 73.3%. The inhibition of growth at 10 µM (PC-3) was 19.1%, the inhibition of growth at 10 µM (SK-MEL-28) was 2.7% and the inhibition of growth at 10 µM (K562) was 11.6%. It also gave an inhibition of growth at 10 µM (NCI-H23) of 9.23%, an inhibition of growth at 10 µM (OVCAR-8) of -1.99% and an inhibition of growth at 10 µM (U-251) of 18.6%. For the same compound, the inhibition of growth at 10 µM (SNB-19) was 2.46%, the inhibition of growth at 10 µM (HT-29) was 1.86% and the inhibition of growth at 10 µM (HCT-15) was 8.74%. The inhibition of growth at 10 µM (SR) was 21.3%, the inhibition of growth at 10 µM (BT-549) was 1.91% and the inhibition of growth at 10 µM (HOP-62) was -6.53%. For the same compound, the inhibition of growth at 10 µM (UACC-62) was 7.61%, the inhibition of growth at 10 µM (SK-OV-3) was -18.4% and the inhibition of growth at 10 µM (SF-295) was 6.24%. The inhibition of growth at 10 µM (TK-10) was -12%, the inhibition of growth at 10 µM (MDA-MB-231) was 16.9% and the inhibition of growth at 10 µM (SF-268) was 3.99%. For the same compound, the inhibition of growth at 10 µM (HCC 2998) was 9.91%, the inhibition of growth at 10 µM (T47D) was 11.6% and the inhibition of growth at 10 µM (OVCAR-4) was 2.46%. The inhibition of growth at 10 µM (LOX IMVI) was 3.99%, the inhibition of growth at 10 µM (HCT-116) was 5.15% and the inhibition of growth at 10 µM (MDA-MB-435) was 4.91%. It also gave an inhibition of growth at 10 µM (SN12C) of 5.25%, an inhibition of growth at 10 µM (MOLT-4) of 12% and an inhibition of growth at 10 µM (HL-60(TB)) of 3.9%. The inhibition of growth at 10 µM (RPMI-8226) was 10.1%, the inhibition of growth at 10 µM (ACHN) was 0.1% and the inhibition of growth at 10 µM (M14) was 3.6%. The inhibition of growth at 10 µM (MCF7) was 61.6% and the inhibition of growth at 10 µM (KM12) was 2.66%.
`CN1CCN(CC(=O)Nc2ccc(-c3nc4ccccc4s3)cc2)CC1` gave an inhibition of growth at 10 µM (SK-MEL-5) of 26.3%, an inhibition of growth at 10 µM (SNB-75) of 26.9% and an inhibition of growth at 10 µM (CCRF-CEM) of 36.3%. It also gave an inhibition of growth at 10 µM (NCI-H522) of 41.1%, an inhibition of growth at 10 µM (RXF 393) of 45.7% and an inhibition of growth at 10 µM (A549) of 11.4%. The inhibition of growth at 10 µM (DU-145) was 14.8%, the inhibition of growth at 10 µM (SF-539) was 132% and the inhibition of growth at 10 µM (UACC-257) was -5.35%. It also gave an inhibition of growth at 10 µM (HOP-92) of 64.3%, an inhibition of growth at 10 µM (UO-31) of 42.5% and an inhibition of growth at 10 µM (MDA-MB-468) of 111%. The inhibition of growth at 10 µM (PC-3) was 16.4%, the inhibition of growth at 10 µM (SK-MEL-28) was 66.2% and the inhibition of growth at 10 µM (K562) was 58.2%. For the same compound, the inhibition of growth at 10 µM (NCI-H23) was 17.8%, the inhibition of growth at 10 µM (OVCAR-8) was 8.74% and the inhibition of growth at 10 µM (U-251) was 32.5%. For the same compound, the inhibition of growth at 10 µM (SNB-19) was 10.3%, the inhibition of growth at 10 µM (HT-29) was 60.4% and the inhibition of growth at 10 µM (HCT-15) was 47.1%. It also gave an inhibition of growth at 10 µM (SR) of 93.7%, an inhibition of growth at 10 µM (BT-549) of 19.4% and an inhibition of growth at 10 µM (HOP-62) of 12.7%. For the same compound, the inhibition of growth at 10 µM (UACC-62) was 136%, the inhibition of growth at 10 µM (SK-OV-3) was 5.77% and the inhibition of growth at 10 µM (SF-295) was 8.86%. The inhibition of growth at 10 µM (TK-10) was 5.2%, the inhibition of growth at 10 µM (MDA-MB-231) was 40.2% and the inhibition of growth at 10 µM (SF-268) was 17%. The inhibition of growth at 10 µM (HCC 2998) was 22.7%, the inhibition of growth at 10 µM (T47D) was 45.9% and the inhibition of growth at 10 µM (OVCAR-4) was 12.7%. The inhibition of growth at 10 µM (LOX IMVI) was 134%, the inhibition of growth at 10 µM (HCT-116) was 29.1% and the inhibition of growth at 10 µM (MDA-MB-435) was 74.6%. The inhibition of growth at 10 µM (SN12C) was 22.3%, the inhibition of growth at 10 µM (MOLT-4) was 22% and the inhibition of growth at 10 µM (HL-60(TB)) was 3.63%. It also gave an inhibition of growth at 10 µM (RPMI-8226) of 11.9%, an inhibition of growth at 10 µM (ACHN) of 28.8% and an inhibition of growth at 10 µM (M14) of 32.4%. The inhibition of growth at 10 µM (MCF7) was 63.2% and the inhibition of growth at 10 µM (KM12) was 14.4%.
